Experimental data reported in patent US11272709B2, “Amidine substituted benzoyl derivatives useful as herbicides” (Syngenta Participations AG, priority 2018, dated 2022).

Experiments:
Format in all cases: in vivo
Details in all cases: evaluated after 13 days
[1] = system: Amaranthus retoflexus (AMARE); assay: Pre-emergence herbicidal glasshouse test, Amaranthus retoflexus (AMARE)
Method: (§1) Seeds of a variety of test species are sown in standard soil in pots (Lolium perenne (LOLPE), Amaranthus retoflexus (AMARE), Abutilon theophrasti (ABUTH), Setaria faberi (SETFA), Echinochloa crus-galli (ECHCG), Ipomoea hederacea (IPOHE)). After cultivation for one day (pre-emergence) or after 8 days cultivation (post-emergence) under controlled conditions in a glasshouse (at 24/16° C., day/night; 14 hours light; 65% humidity), the plants are sprayed with an aqueous spray solution derived from the formulation of the technical active ingredient in acetone/water (50:50) solution containing 0.5% Tween 20 (polyoxyethelyene sorbitan monolaurate, CAS RN 9005-64-5). Compounds are applied at 500 g/h unless otherwise indicated. The test plants are then grown in a glasshouse under controlled conditions in a glasshouse (at 24/16° C., day/night; 14 hours light; 65% humidity) and watered twice daily. After 13 days for pre and post-emergence, the test is evaluated for the percentage damage caused to the plant. The biological activities are shown in the following table on a five point scale (5=80-100%; 4=60-79%; 3=40-59%; 2=20-39%; 1=0-19%).

[2] = system: Abutilon theophrasti (ABUTH); assay: Pre-emergence herbicidal glasshouse test, Abutilon theophrasti (ABUTH)
Method: as §1

Setaria faberi (SETFA) [3] = assay: Pre-emergence herbicidal glasshouse test, Setaria faberi (SETFA)
Method: as §1

[4] = system: Echinochloa crus-galli (ECHCG); assay: Pre-emergence herbicidal glasshouse test, Echinochloa crus-galli (ECHCG)
Method: as §1

[5] = system: Ipomoea hederacea (IPOHE); assay: Pre-emergence herbicidal glasshouse test, Ipomoea hederacea (IPOHE)
Method: as §1

[6] = system: Amaranthus retoflexus (AMARE); assay: Post-emergence herbicidal glasshouse test, Amaranthus retoflexus (AMARE)
Method: as §1

[7] = system: Abutilon theophrasti (ABUTH); assay: Post-emergence herbicidal glasshouse test, Abutilon theophrasti (ABUTH)
Method: as §1

Setaria faberi (SETFA) [8] = assay: Post-emergence herbicidal glasshouse test, Setaria faberi (SETFA)
Method: as §1

[9] = system: Echinochloa crus-galli (ECHCG); assay: Post-emergence herbicidal glasshouse test, Echinochloa crus-galli (ECHCG)
Method: as §1

[10] = system: Ipomoea hederacea (IPOHE); assay: Post-emergence herbicidal glasshouse test, Ipomoea hederacea (IPOHE)
Method: as §1

Compound	PRE Application AMARE, percentage damage (five point scale) ([1]; 500 g/h)	PRE Application ABUTH, percentage damage (five point scale) ([2]; 500 g/h)	PRE Application SETFA, percentage damage (five point scale) (Setaria faberi (SETFA) [3]; 500 g/h)	PRE Application ECHCG, percentage damage (five point scale) ([4]; 500 g/h)	PRE Application IPOHE, percentage damage (five point scale) ([5]; 500 g/h)	POST Application AMARE, percentage damage (five point scale) ([6]; 500 g/h)	POST Application ABUTH, percentage damage (five point scale) ([7]; 500 g/h)	POST Application SETFA, percentage damage (five point scale) (Setaria faberi (SETFA) [8]; 500 g/h)	POST Application ECHCG, percentage damage (five point scale) ([9]; 500 g/h)	POST Application IPOHE, percentage damage (five point scale) ([10]; 500 g/h)	PRE Application AMARE, percentage damage (five point scale) ([1]; applied at 250 g/ha)	PRE Application ABUTH, percentage damage (five point scale) ([2]; applied at 250 g/ha)	PRE Application SETFA, percentage damage (five point scale) (Setaria faberi (SETFA) [3]; applied at 250 g/ha)	PRE Application ECHCG, percentage damage (five point scale) ([4]; applied at 250 g/ha)	PRE Application IPOHE, percentage damage (five point scale) ([5]; applied at 250 g/ha)	POST Application AMARE, percentage damage (five point scale) ([6]; applied at 250 g/ha)	POST Application ABUTH, percentage damage (five point scale) ([7]; applied at 250 g/ha)	POST Application SETFA, percentage damage (five point scale) (Setaria faberi (SETFA) [8]; applied at 250 g/ha)	POST Application ECHCG, percentage damage (five point scale) ([9]; applied at 250 g/ha)	POST Application IPOHE, percentage damage (five point scale) ([10]; applied at 250 g/ha)
CC(=NOCc1c(S(C)(=O)=O)ccc(C(=O)Nc2nnc(C)o2)c1Cl)N(C)C [Compound 2.129]	5 (5=80-100%)	5 (5=80-100%)	3 (3=40-59%)	3 (3=40-59%)	2 (2=20-39%)	5 (5=80-100%)	5 (5=80-100%)	5 (5=80-100%)	5 (5=80-100%)	5 (5=80-100%)	–	–	–	–	–	–	–	–	–	–
Cc1nnc(NC(=O)c2ccc(C(F)(F)F)c(N=CN(C)c3ccccc3)c2Cl)o1 [Compound 2.131]	5 (5=80-100%)	3 (3=40-59%)	5 (5=80-100%)	5 (5=80-100%)	2 (2=20-39%)	5 (5=80-100%)	4 (4=60-79%)	5 (5=80-100%)	5 (5=80-100%)	3 (3=40-59%)	–	–	–	–	–	–	–	–	–	–
Cc1nnc(NC(=O)c2ccc(C(F)(F)F)c(N=CN3CCCC3)c2Cl)o1 [Compound 2.132]	5 (5=80-100%)	5 (5=80-100%)	5 (5=80-100%)	5 (5=80-100%)	5 (5=80-100%)	5 (5=80-100%)	5 (5=80-100%)	5 (5=80-100%)	5 (5=80-100%)	5 (5=80-100%)	–	–	–	–	–	–	–	–	–	–
Cc1nnc(NC(=O)c2ccc(C(F)(F)F)c(N=CN(C)C(C)C)c2Cl)o1 [Compound 2.140]	5 (5=80-100%)	5 (5=80-100%)	5 (5=80-100%)	5 (5=80-100%)	4 (4=60-79%)	5 (5=80-100%)	5 (5=80-100%)	5 (5=80-100%)	5 (5=80-100%)	4 (4=60-79%)	–	–	–	–	–	–	–	–	–	–
Cc1nnc(NC(=O)c2ccc(S(C)(=O)=O)c(N=CN(C)CC(F)(F)F)c2Cl)o1 [Compound 2.142]	–	–	–	–	–	–	–	–	–	–	5 (5=80-100%)	3 (3=40-59%)	5 (5=80-100%)	5 (5=80-100%)	1 (1=0-19%)	5 (5=80-100%)	5 (5=80-100%)	5 (5=80-100%)	5 (5=80-100%)	5 (5=80-100%)
Cc1nnc(NC(=O)c2ccc(S(C)(=O)=O)c(N=CN(C)CC(F)(F)F)c2C)o1 [Compound 2.143]	5 (5=80-100%)	5 (5=80-100%)	5 (5=80-100%)	5 (5=80-100%)	5 (5=80-100%)	5 (5=80-100%)	5 (5=80-100%)	5 (5=80-100%)	5 (5=80-100%)	5 (5=80-100%)	–	–	–	–	–	–	–	–	–	–
